Measurements published in ChEMBL document CHEMBL5500407, “Designing Chromane Derivatives as α2A-Adrenoceptor Selective Agonists via Conformation Constraint” (J Med Chem, 2024).
Active and inactive are the calls of the source. The rule behind the calls is not given here.

What was measured:
[1] = target: T1, Alpha-2A adrenergic receptor (Homo sapiens, UniProt P08913)
T1 sequence (P08913 whole entry): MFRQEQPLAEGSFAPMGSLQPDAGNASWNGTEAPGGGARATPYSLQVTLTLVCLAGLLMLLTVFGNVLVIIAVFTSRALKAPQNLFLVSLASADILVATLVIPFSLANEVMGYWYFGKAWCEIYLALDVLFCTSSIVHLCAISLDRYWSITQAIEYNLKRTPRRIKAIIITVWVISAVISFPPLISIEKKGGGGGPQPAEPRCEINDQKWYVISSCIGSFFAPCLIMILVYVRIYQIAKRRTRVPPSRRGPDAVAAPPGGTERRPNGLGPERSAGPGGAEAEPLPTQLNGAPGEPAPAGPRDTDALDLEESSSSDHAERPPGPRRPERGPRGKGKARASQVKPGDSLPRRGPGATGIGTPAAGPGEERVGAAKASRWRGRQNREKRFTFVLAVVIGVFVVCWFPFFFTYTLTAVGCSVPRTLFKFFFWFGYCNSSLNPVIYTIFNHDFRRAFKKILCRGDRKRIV
Description: Agonist activity at alpha2A-adrenoceptor (unknown origin) expressed in CHO-alpha2-AR-PKAcatEGFP cells assessed as intracellular cAMP concentration by measuring PKA translocation after 15 mins incubation by PKA redistribution assay

[2] = target: T2, Alpha-2B adrenergic receptor (Homo sapiens, UniProt P18089); assay: Agonist activity at alpha2B-adrenoceptor (unknown origin) expressed in U2OS-EGFP-NFAT2-alpha2B-AR cells assessed as increase in intracellular calcium level measured after 15 mins incubation by Micro automated microscopy; format: functional, cell-based
T2 sequence (P18089 whole entry): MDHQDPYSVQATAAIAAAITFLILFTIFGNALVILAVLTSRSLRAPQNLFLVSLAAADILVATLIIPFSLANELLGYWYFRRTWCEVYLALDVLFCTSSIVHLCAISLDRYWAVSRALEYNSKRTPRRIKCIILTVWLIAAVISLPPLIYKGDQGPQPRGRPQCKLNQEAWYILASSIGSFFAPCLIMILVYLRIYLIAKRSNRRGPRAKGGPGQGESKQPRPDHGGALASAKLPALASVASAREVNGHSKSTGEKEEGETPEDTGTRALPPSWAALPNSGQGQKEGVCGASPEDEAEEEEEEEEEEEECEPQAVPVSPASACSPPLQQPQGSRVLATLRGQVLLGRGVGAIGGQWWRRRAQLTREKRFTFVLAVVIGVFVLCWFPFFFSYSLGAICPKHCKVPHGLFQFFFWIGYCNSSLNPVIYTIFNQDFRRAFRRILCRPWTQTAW

[3] = target: T3, Alpha-2C adrenergic receptor (Homo sapiens, UniProt P18825); assay: Agonist activity at alpha2C-adrenoceptor (unknown origin) expressed in CHO-alpha2C-PKAcatEGFP cells assessed as increase in intracellular calcium level measured after 15 mins incubation by Micro automated microscopy; format: functional, cell-based
T3 sequence (P18825 whole entry): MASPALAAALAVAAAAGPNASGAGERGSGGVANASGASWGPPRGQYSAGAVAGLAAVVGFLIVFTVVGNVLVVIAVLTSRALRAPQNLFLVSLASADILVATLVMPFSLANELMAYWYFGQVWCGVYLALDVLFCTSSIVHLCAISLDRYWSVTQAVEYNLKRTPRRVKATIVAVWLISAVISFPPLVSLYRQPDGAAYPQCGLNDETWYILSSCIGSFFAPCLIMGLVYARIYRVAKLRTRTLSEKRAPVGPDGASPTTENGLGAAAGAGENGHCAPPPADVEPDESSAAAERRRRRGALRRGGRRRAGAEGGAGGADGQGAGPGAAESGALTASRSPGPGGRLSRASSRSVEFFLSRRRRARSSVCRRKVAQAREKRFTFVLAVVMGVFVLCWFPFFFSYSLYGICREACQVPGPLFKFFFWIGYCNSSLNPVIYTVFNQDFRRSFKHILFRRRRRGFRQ

[4] = target: T4, Alpha-1A adrenergic receptor (Homo sapiens, UniProt P35348); assay: Agonist activity at alpha1A-adrenoceptor (unknown origin) expressed in HEK293T cells assessed as fluorescence intensity measured after 30 mins by IP-one homogeneous time-resolved fluorescence assay; format: functional, cell-based
T4 sequence (P35348 whole entry): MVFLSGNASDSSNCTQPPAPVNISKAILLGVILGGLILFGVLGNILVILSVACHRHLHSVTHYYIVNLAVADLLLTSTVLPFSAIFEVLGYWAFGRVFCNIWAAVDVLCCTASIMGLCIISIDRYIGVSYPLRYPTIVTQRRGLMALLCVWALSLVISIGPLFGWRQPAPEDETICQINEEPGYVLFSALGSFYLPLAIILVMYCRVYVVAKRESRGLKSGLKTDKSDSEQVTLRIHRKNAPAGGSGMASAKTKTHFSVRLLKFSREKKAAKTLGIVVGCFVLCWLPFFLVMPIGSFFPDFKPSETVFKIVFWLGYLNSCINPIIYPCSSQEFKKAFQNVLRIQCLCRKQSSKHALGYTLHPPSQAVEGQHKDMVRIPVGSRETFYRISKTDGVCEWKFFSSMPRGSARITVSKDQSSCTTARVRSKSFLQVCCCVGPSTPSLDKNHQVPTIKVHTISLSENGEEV

[5] = Selectivity index, ratio of EC50 for alpha2A-adrenoceptor (unknown origin) to EC50 for alpha2B-adrenoceptor (unknown origin)
[6] = Selectivity index, ratio of EC50 for alpha2A-adrenoceptor (unknown origin) to EC50 for alpha2C-adrenoceptor (unknown origin)
[7] = Selectivity index, ratio of EC50 for alpha2A-adrenoceptor (unknown origin) to EC50 for alpha1A-adrenoceptor (unknown origin)
[8] = Metabolic stability in mouse liver microsomes assessed as elimination half life; format: ADME, Microsome
[9] = Metabolic stability in mouse liver microsomes assessed as intrinsic clearance; format: ADME, Microsome; details: read-out: CLH
[10] = test system: Mus musculus; assay: Hypnotic activity in ip dosed C57BL/6 mouse assessed as increase in loss of righting reflex (LORR)
[11] = test system: Mus musculus; assay: Hypnotic activity in ip dosed C57BL/6 mouse assessed as increase in immobility time; format: functional, organism-based
[12] = test system: HEK293T; assay: Agonist activity at alpha2A-adrenoceptor D128A mutant (unknown origin) expressed in HEK293T cells co-expressing pGloSensor-22F cAMP plasmid assessed as at 0.000001 to 100 uM measured after 10 mins incubation by multiplate reader; format: cell-based; details: Homo sapiens, dose lower 1e-06 µM, dose upper 100.0 µM
[13] = test system: HEK293T; assay: Agonist activity at alpha2A-adrenoceptor Y409A mutant (unknown origin) expressed in HEK293T cells co-expressing pGloSensor-22F cAMP plasmid assessed as at 0.000001 to 100 uM measured after 10 mins incubation by multiplate reader; format: cell-based; details: Homo sapiens, dose lower 1e-06 µM, dose upper 100.0 µM
[14] = test system: HEK293T; assay: Agonist activity at alpha2A-adrenoceptor F427A mutant (unknown origin) expressed in HEK293T cells co-expressing pGloSensor-22F cAMP plasmid assessed as at 1 to 100 uM measured after 10 mins incubation by multiplate reader; format: cell-based; details: Homo sapiens, dose 1-100 µM
[15] = target: T5, Alpha-1B adrenergic receptor (Homo sapiens, UniProt P35368); assay: Binding affinity to human alpha1B-adrenoceptor
T5 sequence (P35368 whole entry): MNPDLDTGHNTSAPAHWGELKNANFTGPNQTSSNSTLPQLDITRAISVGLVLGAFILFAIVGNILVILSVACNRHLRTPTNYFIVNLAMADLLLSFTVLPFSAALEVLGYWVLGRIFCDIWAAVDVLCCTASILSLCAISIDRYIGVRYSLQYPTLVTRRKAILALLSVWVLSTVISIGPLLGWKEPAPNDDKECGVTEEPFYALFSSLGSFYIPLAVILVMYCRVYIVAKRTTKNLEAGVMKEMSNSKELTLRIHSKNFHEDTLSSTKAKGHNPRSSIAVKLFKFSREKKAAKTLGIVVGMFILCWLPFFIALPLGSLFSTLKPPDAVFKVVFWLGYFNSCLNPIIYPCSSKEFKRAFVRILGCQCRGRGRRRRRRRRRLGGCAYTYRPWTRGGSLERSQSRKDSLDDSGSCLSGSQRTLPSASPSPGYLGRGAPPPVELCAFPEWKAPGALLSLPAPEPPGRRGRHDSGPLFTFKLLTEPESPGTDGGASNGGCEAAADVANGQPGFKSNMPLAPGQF

[16] = target: T6, Alpha-1D adrenergic receptor (Homo sapiens, UniProt P25100); assay: Binding affinity to human alpha1D-adrenoceptor
T6 sequence (P25100 whole entry): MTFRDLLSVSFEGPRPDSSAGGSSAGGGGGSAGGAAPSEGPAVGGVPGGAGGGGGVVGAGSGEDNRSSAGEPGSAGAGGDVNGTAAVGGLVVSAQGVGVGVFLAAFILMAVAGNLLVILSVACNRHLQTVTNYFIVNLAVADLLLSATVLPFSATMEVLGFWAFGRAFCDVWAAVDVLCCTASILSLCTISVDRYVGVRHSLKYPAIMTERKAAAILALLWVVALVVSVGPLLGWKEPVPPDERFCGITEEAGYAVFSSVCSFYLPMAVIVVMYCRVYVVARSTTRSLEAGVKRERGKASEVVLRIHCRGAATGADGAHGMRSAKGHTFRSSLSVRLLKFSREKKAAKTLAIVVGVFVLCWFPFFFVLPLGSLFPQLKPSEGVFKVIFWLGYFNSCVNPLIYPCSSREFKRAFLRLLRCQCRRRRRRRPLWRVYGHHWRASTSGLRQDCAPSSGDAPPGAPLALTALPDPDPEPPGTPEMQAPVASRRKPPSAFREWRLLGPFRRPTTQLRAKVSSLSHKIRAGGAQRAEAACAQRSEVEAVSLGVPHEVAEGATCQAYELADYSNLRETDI

[17] = target: T1, Alpha-2A adrenergic receptor; remark: listed apart in the source
Description: Binding affinity to human alpha2A-adrenoceptor

Cc1ccc2c(c1)C(c1c[nH]cn1)CCO2 (stereo unspecified)
EC50 [1]: 2030 nM

Clc1cc(Br)cc2c1OCC=C2c1c[nH]cn1
EC50 [1]: > 5000 nM

Brc1ccc2c(c1)C(c1c[nH]cn1)CCO2 (stereo unspecified)
EC50 [1]: 446 nM

Clc1cccc2c1OCCC2c1c[nH]cn1 (stereo unspecified)
EC50 [2]: 24.1 nM | EC50 [3]: 35.8 nM | EC50 [4]: 4.05 nM | Selectivity Index [5]: 10 | Selectivity Index [6]: 15 | Selectivity Index [7]: 1.7 | EC50 [1]: 2.36 nM

Fc1cccc2c1OCC=C2c1c[nH]cn1
EC50 [1]: 77.3 nM

Brc1cccc2c1OCC=C2c1c[nH]cn1
EC50 [2]: 186 nM | EC50 [3]: 37.2 nM | EC50 [4]: 32 nM | Selectivity Index [5]: 238 | Selectivity Index [6]: 48 | Selectivity Index [7]: 41 | half-life [8]: 5.56 min | microsomal CLint [9]: 249 µL/min/mg | ED50 [10]: 1.54 mg/kg | Activity [11]: Dose-Dependent Effect | Activity [12]: inactive | Activity [13]: inactive | Activity [14]: inactive | EC50 [1]: 0.78 nM

Cc1[nH]cnc1C1=CCOc2c(Cl)cccc21
EC50 [1]: > 5000 nM

Cc1ccc2c(c1Br)OCC=C2c1c[nH]cn1
EC50 [1]: 104 nM

Clc1ccc2c(c1)C(c1cnc[nH]1)=CCO2
EC50 [1]: 899 nM

Clc1cccc(Cl)c1N=C1NCCN1 [CLONIDINE]
Ki [15]: 7410 nM | Ki [16]: 2570 nM

Brc1ccc2c(c1)OCCC2c1c[nH]cn1 (stereo unspecified)
EC50 [1]: 165 nM

Cc1cccc2c1OCC=C2c1nc[nH]c1C
EC50 [1]: > 5000 nM

Cc1ccc2c(c1)C(c1c[nH]cn1)=CCO2
EC50 [1]: 896 nM

COc1ccc2c(c1)C(c1c[nH]cn1)=CCO2
EC50 [1]: > 5000 nM

Brc1ccc2c(c1)C(c1c[nH]cn1)=CCO2
EC50 [1]: > 5000 nM

Clc1cccc2c(Nc3ccncc3)cccc12
Ki [17]: 8.32 nM
